Experimental data published in patent US6417225B1, “Prophylactic/therapeutic agents for atherosclerosis” (Chugai Seiyaku Kabushiki Kaisha, priority 1997, dated 2002).

Legend:
[1] = system: LDL receptor-deficient mice; experiment: Effect on formation of xanthoma in an in vivo xanthoma model; details: for Inhibitory effect on formation of xanthomas (in words): LDL receptor-deficient mice; for Xanthoma score: 0.5% in high-fat diet, 13 weeks, forefeet and palpebrae, total score
Description: Effect on Formation of Xanthoma in an in vivo Xanthoma Model
In order to evaluate the inhibitory effect of the compound of Example 1 on xanthoma in an in vivo xanthoma model, LDL receptor-deficient mice were used.
One of the remaining two groups similarly received a high-fat feed containing neither probucol nor the compound of Example 1 and was used as a control and the other one group similarly received a normal, chow diet feed containing neither probucol nor the compound of Example 1.
After administration of the compound for 13 weeks, xanthomas were scored in both forefeet and palpebrae based on the appearance thereof and the scores were totalized. The number of animals used for the evaluation was 5 for the normal feed group consisting of female mice and 7-9 for the other groups.

[2] = system: LDL receptor-deficient mice; experiment: Effect on atherosclerosis in an in vivo atherosclerosis model (2): LDL receptor-deficient mice; details: for Inhibitory effect on arteriosclerosis (in words): LDL receptor-deficient mice; for Area of Arteriosclerotic lesions (mm^2): 0.5% in high-fat diet, 13 weeks, arcus aorta
Description: Effect on Atherosclerosis in an in vivo Atherosclerosis Model (2)
In order to evaluate the inhibitory effect of the compound of Example 1 on atherosclerosis in an in vivo atherosclerosis, LDL receptor-deficient mice were used.
One of the remaining two groups similarly received a high-fat diet containing neither probucol nor the compound of Example 1 and was used as a control and the other one group similarly received a normal, chow diet containing neither probucol nor the compound of Example 1.
(§1) After administration of the compound for 13 weeks, the arcus aorta was removed from each of the animals, transversely sectioned and stained with Sudan IV. The area of arteriosclerotic lesions was determined by an image analysis under an optical microscope. The average of the area of arteriosclerotic lesions in the aucus aortae was calculated for each animal. The number of animals used for the evaluation was 5 for the normal chow diet group consisting of female mice and 7-9 for the other groups.

[3] = system: LDL receptor/apolipoprotein E double hetero-deficient mice; experiment: Effect on atherosclerosis in an in vivo atherosclerosis model (3): LDL receptor/Apo E hetero-deficient mice; details: for Inhibitory effect on arteriosclerosis (in words): LDL receptor/Apo E hetero-deficient mice; for Area of Arteriosclerotic lesions (mm^2): female mice, 0.5% in high-fat diet, 6 months, arcus aorta
Description: Effect on Atherosclerosis in an in vivo Atherosclerosis Model (3)
In order to evaluate the inhibitory effect of the compound of Example 1 on atherosclerosis in an in vivo atherosclerosis model, LDL receptor/apolipoprotein E double hetero-deficient (LDL receptor/Apo E hetero-deficient) mice were used.
One of the remaining two groups similarly received a high-fat feed containing neither probucol nor the compound of Example 1 and was used as a control and the other one group similarly received a normal, chow diet containing neither probucol nor the compound of Example 1.
as §1, with “6 months,” for “13 weeks,”, “2” for “5”, “feed” for “chow diet”, “group” for “group consisting of female mice”, “5-6” for “7-9”

[4] = system: Watanabe Heritable Hyperlipidemic (WHHL) rabbits; experiment: Effect on atherosclerosis in an in vivo atherosclerosis model (1): WHHL rabbits; parameters: species or system rabbit; details: for Lesions in arch section (%) / Lesions in the whole aorta (%): 6 months
Description: Effect on Atherosclerosis in an in vivo Atherosclerosis Model (1)
In order to evaluate the inhibitory effect of the compound of Example 1 on atherosclerosis in an in vivo atherosclerosis model, Watanabe Heritable Hyperlipidemic (WHHL) rabbits were used.
Specifically, 4 groups of 4 or 5 WHHL rabbits (Kbl: 2 to 3-month-old male) were conditioned for a week, and then 3 groups of them received 1% probucol and 0.2% and 0.5% Example 1 compound contained in a normal chow diet, respectively, by limited feeding (40 g/kg) once a day for 6 months. The other one group similarly received the normal chow diet containing neither probucol nor the compound of Example 1 and was used as a control.
After administration of the compound for 6 months, the aorta was removed from each of the animals and visualized to prepare a photograph of the inside of the aortic sample. White fat deposition area which represents arteriosclerotic lesions was determined by the image analysis on the photograph for each of three parts of the aortic sample (arch, chest and abdomen). From the results, the proportions (percentage) of the fat deposition area to the overall area for the arch section and the whole aorta were obtained. Four or five animals were used for each group for the evaluation.

femoral atheroscleroses = details: literature report; cited from earlier work

| SMILES | Inhibitory effect on formation of xanthomas (in words) [1] | Xanthoma score ([1]; female mice) | Xanthoma score ([1]; male mice) | Inhibitory effect on arteriosclerosis (in words) [2] | Area of Arteriosclerotic lesions (mm^2) ([2]; female mice) | Area of Arteriosclerotic lesions (mm^2) ([2]; male mice) | Inhibitory effect on arteriosclerosis (in words) [3] | Area of Arteriosclerotic lesions (mm^2) [3] | Inhibitory effect on atherosclerosis (in words) [4] | Lesions in arch section (%) ([4]; 0.2% in normal chow diet) | Lesions in the whole aorta (%) ([4]; 0.2% in normal chow diet) | Lesions in arch section (%) ([4]; 0.5% in normal chow diet) | Lesions in the whole aorta (%) ([4]; 0.5% in normal chow diet) | Atherosclerosis inhibitory effect compared with probucol (in words) ([4]; at a half of the dosage of probucol) | Therapeutic effect on atherosclerosis in clinical tests (in words) (femoral atheroscleroses) | Lesions in the whole aorta (%) ([4]; 1% in normal chow diet) | Lesions in arch section (%) ([4]; 1% in normal chow diet, fat deposition area / overall area) |
| --- | --- | --- | --- | --- | --- | --- | --- | --- | --- | --- | --- | --- | --- | --- | --- | --- | --- |
| CCCCCC1(CCCCC)Cc2c(cc(C(C)(C)C)c(O)c2C(C)(C)C)O1 [Example 1, 4,6-di-t-butyl-2,2-di-n-pentyl-5-hydroxy-2,3-dihydrobenzofuran] | strong inhibitory effect | 1.25 ± 0.25 | 0.29 ± 0.20 | exhibits an inhibitory effect | 0.192 mm^2 | 0.185 mm^2 | strong inhibitory effect | 0.150 mm^2 | strong inhibitory effect | 65.7 ± 3.7% | 44.3 ± 6.8 % | 52.6 ± 7.4 % | 37.4 ± 5.7 % | comparable to that of probucol | – | – | – |
| CC(C)(Sc1cc(C(C)(C)C)c(O)c(C(C)(C)C)c1)Sc1cc(C(C)(C)C)c(O)c(C(C)(C)C)c1 [Probucol, probucol, reference compound] | not observed | 3.43 ± 0.30 | 3.13 ± 0.30 | not observed | 0.245 mm^2 | 0.376 mm^2 | not observed | 0.451 mm^2 | – | – | – | – | – | – | no therapeutic effect | 25.2 ± 2.6 % | 53.9 ± 5.6 % |
